Test results published in patent US12605407B2, “Methods to induce terminal differentiation in stem cells by interfering with DNA replication, methods of inducing pancreatic differentiation, and differentiated cells obtained thereof” (priority 2018, dated 2026).

Columns and labels:
[1] = system: stem cell derived beta cells; assay: Western blotting of sorted GFP positive cells; type: cell-based, human; conditions: Western Blot
Protocol: The sorted GFP positive and negative cells with and without cell cycle inhibitor (e.g., APH) treatment were lysed with RIPA buffer. Protein was quantified with Pierce BCA protein assay kit. 20 ug of protein was loaded on 4-20% Mini-PROTEAN TGS Precast Protein Gels (Cat. No. 4561094, Bio-Rad) from each condition and ran at 100 V for 1 hour followed by transferring protein on PVDF membrane. The membrane was blocked with 3% BSA in TBST for 1 hour at RT, incubate with primary antibodies diluted in TBST with 3% BSA overnight on a shaker. After washing with TBST, the membrane was incubated with secondary antibodies diluted in TBST with 3% non-fat dry milk powder for 1 hour at room temperature. The image was taken using ChemiDoc Imaging Systems (Bio-Rad).
(§1) Insulin positive cells were isolated based on GFP expression and the expressions of genes related to the maturation of beta cells including PDX1, NKX6.1, MAFA and insulin were evaluated (FIG. 6A). […] In addition, the C-peptide secretion was increased 2-6-fold, with an average of 3-fold, in response to high levels of glucose (FIG. 6D).

sc-beta cell clusters = assay: Static glucose stimulated C-peptide secretion; type: cell-based, human; conditions: 2 mM versus 20 mM glucose
Protocol: Krebs Ringer buffer (KRB) was prepared by addition of 129 mM NaCl, 4.8 mM KCl, 2.5 mM CaCl2), 1.2 mM MgSO4, 1 mM Na2HPO4, 1.2 mM KH2PO4, 5 mM NaHCO3, 10 mM HEPES and 0.1% BSA in deionized water and was sterilized using 0.22 μm filter. 2 mM and 20 mM glucose solution were prepared in KRB for low glucose and high glucose challenge of sc-beta cell clusters. 10-20 sc-beta cell clusters (about 5×10^5 cells) were collected from control and cells treated with cell cycle inhibitors including APH and treated conditions and pre-incubated in 500 μl low glucose solution for 1 hour. Clusters were then washed once with low glucose solution and sequentially incubated in 200 μl of low glucose and then high glucose solution for 30 minutes. 130 μl supernatant of each condition were collected. Supernatants containing secreted C-peptide stimulated by low and high glucose were processed using Mercodia Ultrasensitive Human C-peptide ELISA kit. Fold changes of C-peptide secretion before and after glucose stimulation were calculated.
as §1

NSG mice [2] = assay: Transplantation of treated islet-like clusters, human C-peptide in mouse serum; type: in vivo
Protocol: (§2) 8-10 weeks old male immuno-compromised mice (NOD.Cg-Prkdcscid Il2rgtm1Wj1/SzJ (NSG) from Jackson laboratories, Cat. No. 005557) were used for transplantation. For intra leg muscle transplantation, 1-2 million cells were collected and settled in tube with 50 μl Matrigel. All animal protocols were approved by the Institutional Animal Care and Use Committee in Columbia University.
The human C-peptide levels in mouse serum were measured every two weeks in the fed state. Intraperitoneal glucose tolerance test was performed by fasting overnight and injecting 2 g/kg D-glucose solution at 2 weeks after mouse beta cells were ablated with one high dose (150 mg/kg) Streptozocin (Cat. No. S0130-1G, Sigma-Aldrich). Blood was collected in heparin-coated tube at fed state, fasting and 30 min after glucose injection. Plasma were collected by centrifuging tubes at 2000 g for 15 minutes at 4° C. The supernatants were collected for C-peptide and insulin detection with Mercodia M-Plex™ ARRAY Chemiluminescent Mercodia Beta Kit. Blood glucose levels was measured at fed state, fasting and every 30 minutes after glucose injection for 2 hours.
To test the ability of aphidicolin treated islet-like clusters to regulate blood glucose levels, treated and untreated cells were grafted into NSG mice on day 27 of differentiation. After transplantation in the immunodeficient mice, the mice transplanted with APH treated cells developed higher human C-peptide starting from 2 weeks after engraftment compared to that of control mice (FIG. 7A). The increase became significant from 6 weeks after transplantation (FIG. 7B).

NSG mice [3] = assay: Graft growth by luciferase reporter in vivo imaging, cyst formation and graft sections
Protocol: as §2
A major obstacle for the therapeutic translation of stem cell products is the formation of growths, in the form of a teratoma or of a cyst. To determine growth potential of the grafted cells, growth was evaluated by monitoring the graft with a luciferase reporter using in vivo imaging. Mice were transplanted with 1-2 million APH treated cells or untreated cells. After 2 weeks of transplantation, the graft size of APH mice was small, while controls were modestly larger (FIG. 8A). […] The different growth trend of grafted cells between control and APH treated cells was evident in the bioluminescence intensity (FIG. 8C). At 22 weeks of engraftment, the size of graft in APH group was an average of 2.6-fold larger than that of 2 weeks compare to the control group which had 53.1-fold increase (FIG. 8D). Graft growth occurred in controls even in cultures with very high differentiation efficiency (greater than 60%). The increase of graft size was slower in the 3 mice transplanted with control cells with high differentiation efficiency but cystic structure still formed in three out of the three (3/3) mice (FIG. 8C, FIG. 8E).
The grafts were isolated from mice and frozen sectioned for examination. […] In control mice, the graft developed several large cystic structures and contained fewer C-peptide positive cells (FIG. 8G).

[4] = isolated grafts, frozen sections

Compound: C[C@@]1(CO)[C@H](O)CC[C@@]2(C)[C@H]1CC[C@H]1C[C@@H]3C[C@@]12CC[C@]3(O)CO [APH, Aphidicolin]
- expression of MAFA at the translational level [1]: increased expression
- expression of NKX6.1 at the translational level [1]: increased expression
- expression of PDX1 at the translational level [1]: increased expression
- expression of insulin at the translational level [1]: increased expression
- C-peptide secretion increase in response to high levels of glucose (sc-beta cell clusters): 2-6 fold
- C-peptide secretion increase in response to high levels of glucose, average (sc-beta cell clusters): 3 fold
- secretion of human C-peptide in mice (NSG mice [2]; after glucose injection): increased
- increase of human C-peptide versus control mice, significance (NSG mice [2]; from 6 weeks after transplantation): significant
- human C-peptide compared to control mice (NSG mice [2]; mice transplanted with APH treated cells, starting from 2 weeks after engraftment): higher
- secretion of human C-peptide in mice (NSG mice [2]; when mice were fasted): downregulated
- graft size (NSG mice [3]; 2 weeks of transplantation, 1-2 million APH treated cells): small
- size of graft relative to 2 weeks, average (bioluminescence) (NSG mice [3]; 22 weeks of engraftment): 2.6 fold
- graft size relative to graft at 2 weeks (NSG mice [3]; eleven weeks later (13 weeks post transplantation)): remained the similar size
- cysts in mice grafted with APH treated cells (NSG mice [3]; four out of the four (4/4) mice): No cysts
- MAFA staining of insulin expressing beta cells in graft (NSG mice [3]; [4]): positive for MAFA
- graft composition (NSG mice [3]; [4]): islet like structures
